For experiment [1], the system named is parasitic worms. In words: anthelmintic activity (general; sheep). The following applies: in vivo.
A short description of experiment [2]: anorexigenic activity. The settings on record: in vivo.

“Also recorded” adds a separate entry of the source.

Consider `ClC(=NNc1ccccc1)c1ccccc1` [benzoyl chloride phenylhydrazone], for which the anthelmintic activity entry in experiment [1] is recorded as “effective against worms; also recorded: efficacious anthelmintic agents”.

Regarding `ClC(=NNc1cc(Cl)ccc1Cl)c1ccccc1` [benzoyl chloride (2,5-dichlorophenyl)hydrazone], the anorexigenic activity entry in experiment [2] is reported as “have anorexigenic activity”.

In the case of `ClC(=NNc1c(Cl)cc(Cl)cc1Cl)c1ccc(Cl)cc1` [p-chlorobenzoyl chloride (2,4,6-trichlorophenyl)hydrazone], the anorexigenic activity entry in experiment [2] is listed as “anorexigenic activity”.
